Reference: patent US6432962B1, “Benzophenones as inhibitors of IL-1β and TNF-α” (Leo Pharmaceutical Products Ltd. A/S, priority 2000, dated 2002)

Experiments:
[1] = system: IL-1β secretion, LPS stimulated peripheral blood mononuclear cells; test: Inhibition of IL-1β secretion from LPS stimulated peripheral blood mononuclear cells; type: cell-based; details: LPS stimulated human PBMC, 18 hours, ELISA; read-out: Inhibition of cytokines in vitro, median inhibition concentration (IC50), IL-1β
Procedure: (§1) To study the effect of the compound of the present invention in vitro the inhibition of the IL-1β and TNF-α secretion was measured using the following procedure: Cytokine production was measured in the media from lipopolysaccharide (LPS) stimulated peripheral blood mononuclear cells. The mononuclear cells were isolated from human peripheral blood by Lymphoprep® (Nycomed, Norway) fractionation and suspended in RPMI 1640 (growth medium) with foetal calf serum (FCS, 2%), at a concentration of 5×10^5 cells/ml. The cells were incubated in 24-well tissue culture plates in 1 mL aliquots. Test compounds were dissolved in dimethylsulfoxide (DMSO, 10 mM) and were diluted with the medium. Compounds were added to the cells for 30 minutes, then LPS ([…] final concentration) was added. The plates were incubated for 18 hours, and the concentration of IL-1β and TNF-α in the medium was determined by enzyme-linked immunosorbent assays. The median inhibitory concentrations (IC50) of the compounds were calculated.

[2] = system: TNF-α secretion, LPS stimulated peripheral blood mononuclear cells; test: Inhibition of TNF-α secretion from LPS stimulated peripheral blood mononuclear cells; type: cell-based; details: LPS stimulated human PBMC, 18 hours, ELISA; read-out: Inhibition of cytokines in vitro, median inhibition concentration (IC50), TNF-α
Procedure: as §1

[3] = system: Human polymorphonuclear (PMN) granulocytes, superoxide anion generation; test: Inhibition of PMN superoxide secretion (ferricytochrome C reduction); type: cell-based; details: human PMN primed with TNF-α, fMLP stimulated; read-out: Inhibition of PMN-superoxide production in vitro, median inhibition concentration (IC50)
Procedure: The compounds of the present invention also show similar activities in the ability to inhibit PMN (polymorphonuclear) superoxide secretion which is also indicative of potentially useful anti-inflammatory drugs. The compounds were tested using the following procedure: Human polymorphonuclear (PMN) granulocytes were isolated from human blood by dextran sedimentation, Lymphoprep® fractionation and hypotonic lysis of contaminating erythrocytes. Superoxide anion generation was measured as the superoxide dismutase inhibitable reduction of ferricytochrome C (Madhu, S. B. et al, Inflammation, 16, 241, (1992)). The cells were suspended in Hanks' balanced salt solution, and incubated for 10 minutes at 37° C. with test compounds. The cells were primed by the addition of TNF-α (3 ng/mL final concentration) for 10 minutes, and then ferricytochrome C, (final concentration 750 μg/mL), bovine serum albumin (BSA, final concentration 1 mg/mL) and formylmethionyl-leucyl-phenylalanine (fMLP, final concentration 10^-7 M) were added for 3 minutes. The cells were chilled on ice, and were spun down. The optical densities in the cell-free supernatant was measured in a spectrophotometer. The median inhibitory concentration (IC50) of the compounds was calculated.

[4] = Log P of the tested compounds; type: physicochemical
[5] = molecular target: T1, p38α MAP kinase (Homo sapiens, UniProt Q16539); test: p38α MAP kinase assay; type: biochemical; details: immunoprecipitated FLAG-p38α from COS-1 cells, GST-ATF-2 substrate; read-out: IC50 values for the inhibition of p38α MAP kinase, mean concentration
T1 construct: made in house; host or cells: COS-1 cells (transient co-transfection, anti-FLAG M2 immunoprecipitation)
T1 sequence (Q16539 whole entry): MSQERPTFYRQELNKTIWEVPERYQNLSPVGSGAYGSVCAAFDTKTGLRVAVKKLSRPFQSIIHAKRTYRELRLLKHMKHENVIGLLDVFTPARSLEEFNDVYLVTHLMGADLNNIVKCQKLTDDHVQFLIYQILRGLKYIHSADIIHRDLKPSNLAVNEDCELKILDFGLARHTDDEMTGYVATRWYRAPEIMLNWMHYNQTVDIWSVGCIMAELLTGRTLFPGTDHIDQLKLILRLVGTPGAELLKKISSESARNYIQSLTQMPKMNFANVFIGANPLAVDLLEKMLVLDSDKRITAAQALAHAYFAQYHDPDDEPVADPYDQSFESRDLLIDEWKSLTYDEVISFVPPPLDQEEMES
Procedure: Transient Expression of COS-1 Cells
On day one COS-1 cells were seeded in 143 cm^2 petridish with a density of 2×10^4 cells/cm^2 in growth medium. At day 2 the cells were co-transfected with 5 μg (total) of experimental plasmid DNA, expressing the FLAG-p38α and FLAG-MKK6(EE). The plasmids were introduced into the COS-1 cells in serum-free medium using DOTAP™ (Boehringer-Mannheim, Mannheim, Germany). Plasmid DNA was prepared and purified using the QIAGEN EndoToxin-free Maxiprep-500 kit (Hilden, Germany). Briefly, DNA and DOTAP™ were mixed for exactly 15 min. at 37° C. in the CO2 incubator. The transfection-mixture was hereafter transferred to a 15-mL falcon-tube and transfection-medium (DMEM with L-Glutamine and Pen./Strep. but without serum) was added to the transfection-mixture, followed by addition to the cell-monolayer. After 4 hours of incubation with DOTAP™ and plasmids, the medium containing double amount of serum was added to the cells bringing the final concentration of serum up to 10%. […]
The reaction was allowed to proceed for 30 min. at 30° C., and it was stopped by adding 40 μl of 2×SDS-sample buffer to the kinase reaction. […] The dried SDS-PAGE gel was exposed to a Phospho-Imager screen and the radioactive PHAS-1 bands were quantified by the STORM860 Phospho-Imager (Molecular Dynamics, Sunnyvale, Calif., USA) using the ImageQuaNT software.

IC50 [1] [nM] | IC50 [2] [nM] | IC50 [3] [nM] | Log P [4] | logP [4] | IC50 [5] [nM] | SMILES
15.8 | 3.1 | 12.6 | 4.4 |  |  | Cc1ccccc1C(=O)c1ccc(Nc2c[n+]([O-])cc3ccccc23)cc1Cl [Compound 128, 2-Chloro-4((4-isoquinolyl-N-oxide)amino)-2′-methylbenzophenone]
13 | 7.1 | 5 |  | 4.9 |  | Cc1ccccc1C(=O)c1ccc(Nc2ccccc2N)cc1Cl [Ref. comp., 4-(2-aminophenylamino)-2-chloro-2′-methylbenzophenone, reference compound]
31 | 5 | 15 |  | 4.2 | 12.8 | Cc1ccccc1C(=O)c1ccc(Nc2cncc3ccccc23)cc1Cl [Compound 114, 2-Chloro-4-(4-isoquinolylamino)-2′-methylbenzophenone]
